Literature values in patent publication US20140179719A1, “NOVEL AMORPHOUS SOLID DISPERSIONS OF VALGANCICLOVIR HYDROCHLORIDE” (priority 2012, published 2014).
Where two headings read alike, the source gives them in different places.

Conditions: ganciclovir administered orally

In the case of Nc1nc(O)c2ncn(COC(CO)CO)c2n1 [Ganciclovir], the “bioavailability of ganciclovir, oral formulation” value is given as 6-10% and the “bioavailability of ganciclovir, oral formulation” value (listed as gancilcovir) is given as 6%.
